Assay results from ChEMBL document CHEMBL2364335, “Structure-activity relationship data for chemical series of achiral agonists of the ghrelin (growth hormone secretagogue) receptor (Supplementary Bioactivity Data for publication CHEMBL1140573)”.

Molecular target: Growth hormone secretagogue receptor type 1 (Homo sapiens, UniProt Q92847)
Test: SUPPLEMENTARY: Agonist activity at GSHR by FLIPR assay. Same assay as CHEMBL941945
Type: functional

Sequence of Growth hormone secretagogue receptor type 1 (Q92847 whole entry): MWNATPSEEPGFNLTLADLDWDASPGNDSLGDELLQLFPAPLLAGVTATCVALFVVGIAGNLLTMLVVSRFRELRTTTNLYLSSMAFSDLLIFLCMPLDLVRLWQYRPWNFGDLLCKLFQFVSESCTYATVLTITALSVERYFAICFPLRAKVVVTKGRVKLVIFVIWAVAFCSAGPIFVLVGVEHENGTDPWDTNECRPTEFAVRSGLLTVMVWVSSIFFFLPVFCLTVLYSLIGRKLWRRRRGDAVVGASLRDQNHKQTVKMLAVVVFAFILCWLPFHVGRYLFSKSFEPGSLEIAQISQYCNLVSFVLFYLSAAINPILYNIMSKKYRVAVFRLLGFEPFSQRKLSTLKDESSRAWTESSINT

| SMILES | EC50 |
| --- | --- |
| Cc1ccc(N2C[C@@H](C)N[C@@H](C)C2)cc1NS(=O)(=O)c1cccc2ccccc12 | 20 nM |
| Cc1ccc(N2C[C@@H](C)N[C@@H](C)C2)cc1NS(=O)(=O)c1ccc(-c2cccs2)cc1 | 3.98 nM |
| Cc1csc(-c2ccc(S(=O)(=O)Nc3cc(N4C[C@@H](C)N[C@@H](C)C4)ccc3C)cc2)c1 | 1.26 nM |
| COc1ccc(NS(=O)(=O)c2ccc(-c3cccs3)c(F)c2)cc1N1C[C@@H](C)N[C@@H](C)C1 | 3.16 nM |
| COc1ccc(NS(=O)(=O)c2ccc(-c3ccc(C)s3)s2)cc1N1C[C@@H](C)N[C@@H](C)C1 | 1.58 nM |
| COc1ccc(NS(=O)(=O)c2ccc(-c3cc(C)cs3)cc2)cc1N1C[C@@H](C)N[C@@H](C)C1 | 1.26 nM |
| COc1ccc(NS(=O)(=O)c2ccc(-c3ccoc3)cc2)cc1N1C[C@@H](C)N[C@@H](C)C1 | 12.6 nM |
| C[C@@H]1CN(c2ccc(F)c(NS(=O)(=O)c3ccc(-c4ccccc4)cc3)c2)C[C@H](C)N1 | 31.6 nM |
| C[C@@H]1CN(c2ccc(F)c(NS(=O)(=O)c3ccc(-c4cccs4)cc3F)c2)C[C@H](C)N1 | 20 nM |
| C[C@@H]1CN(c2ccc(F)c(NS(=O)(=O)c3ccc(-c4cccs4)cc3Cl)c2)C[C@H](C)N1 | 7.94 nM |
| C[C@@H]1CN(c2ccc(F)c(NS(=O)(=O)c3ccc(-c4cccs4)c(F)c3)c2)C[C@H](C)N1 | 10 nM |
| C[C@@H]1CN(c2ccc(F)c(NS(=O)(=O)c3ccc(-c4ccoc4)cc3)c2)C[C@H](C)N1 | 25.1 nM |
| C[C@@H]1CN(c2ccc(F)c(NS(=O)(=O)c3ccc(-c4ccoc4)c(F)c3)c2)C[C@H](C)N1 | 15.8 nM |
| COc1ccc(N2C[C@@H](C)N[C@@H](C)C2)cc1NS(=O)(=O)c1ccc(-c2csnn2)s1 | 25.1 nM |
| COc1ccc(N2C[C@@H](C)N[C@@H](C)C2)cc1NS(=O)(=O)c1ccc2c(c1)CCC(C)(C)O2 | 31.6 nM |
| COc1ccc(N2C[C@@H](C)N[C@@H](C)C2)cc1NS(=O)(=O)c1ccc2c(c1)OCCN2C | 79.4 nM |
| COc1ccc(N2C[C@@H](C)N[C@@H](C)C2)cc1NS(=O)(=O)c1ccc(-c2csc(C)n2)s1 | 39.8 nM |
| COc1cc(Br)ccc1S(=O)(=O)Nc1cc(N2C[C@@H](C)N[C@@H](C)C2)ccc1F | 100 nM |
| Cc1cc(S(=O)(=O)Nc2cc(N3C[C@@H](C)N[C@@H](C)C3)ccc2F)ccc1Br | 63.1 nM |
| COc1ccc(N2C[C@@H](C)N[C@@H](C)C2)cc1NS(=O)(=O)c1ccc(-c2cnccn2)cc1 | 31.6 nM |
| COc1cc(-c2cc(C)cs2)ccc1S(=O)(=O)Nc1cccc(N2C[C@@H](C)N[C@@H](C)C2)c1 | 6.31 nM |
| COc1cc(-c2cccs2)ccc1S(=O)(=O)Nc1cccc(N2C[C@@H](C)N[C@@H](C)C2)c1 | 20 nM |
| COc1ccc(N2C[C@@H](C)N[C@@H](C)C2)cc1NS(=O)(=O)c1ccc(-c2cccs2)nc1 | 50.1 nM |
| C[C@@H]1CN(c2ccc(Cl)c(NS(=O)(=O)c3ccc(-c4ccccc4F)s3)c2)C[C@H](C)N1 | 10 nM |
| COc1ccc(N2C[C@@H](C)N(C)[C@@H](C)C2)cc1NS(=O)(=O)c1ccc(-c2cccs2)cc1 | 12.6 nM |
| Cc1ccc(-c2ccc(S(=O)(=O)Nc3cc(N4C[C@@H](C)N[C@@H](C)C4)ccc3O)cc2)o1 | 5.01 nM |
| COc1ccc(N2CCN[C@@H](C)C2)cc1NS(=O)(=O)c1ccc(-c2cccs2)cc1 | 158 nM |
| COc1ccc(N2CCN[C@H](C)C2)cc1NS(=O)(=O)c1ccc(-c2cccs2)cc1 | 31.6 nM |
| Cc1ccc(-c2ccc(S(=O)(=O)Nc3cc(N4C[C@@H](C)N[C@@H](C)C4)ccc3O)cc2F)o1 | 3.16 nM |
| C[C@@H]1CN(c2ccc(O)c(NS(=O)(=O)c3ccc(-c4ccccc4F)s3)c2)C[C@H](C)N1 | 6.31 nM |

More lines, now with the values ahead:

| EC50 | SMILES |
| --- | --- |
| 15.8 nM | COc1ccc(N2C[C@@H](C)N[C@@H](C)C2)cc1NS(=O)(=O)c1ccc(-c2ccco2)nc1 |
| 25.1 nM | COc1ccc(N2C[C@@H](C)N[C@@H](C)C2)cc1NS(=O)(=O)c1ccc(-c2ccc(C)s2)s1 |
| 0.398 nM | COc1ccc(N2C[C@@H](C)N[C@@H](C)C2)cc1NS(=O)(=O)c1ccc(-c2cc(C)cs2)cc1C |
| 2.51 nM | COc1ccc(N2C[C@@H](C)N[C@@H](C)C2)cc1NS(=O)(=O)c1ccc(-c2cccc(Cl)c2)cc1 |
| 0.501 nM | COc1ccc(N2C[C@@H](C)N[C@@H](C)C2)cc1NS(=O)(=O)c1ccc(-c2cc(C)cs2)cc1F |
| 1.58 nM | COc1ccc(N2C[C@@H](C)N[C@@H](C)C2)cc1NS(=O)(=O)c1ccc(-c2ccco2)cc1F |
| 10 nM | COc1ccc(N2C[C@@H](C)N[C@@H](C)C2)cc1NS(=O)(=O)c1cccc2cccc(Cl)c12 |
| 100 nM | COc1ccc(N2C[C@@H](C)N[C@@H](C)C2)cc1NS(=O)(=O)c1ccc(-c2ccc(F)cc2F)cc1 |
| 20 nM | COc1ccc(N2C[C@@H](C)N[C@@H](C)C2)cc1NS(=O)(=O)c1ccc(-c2ccccc2F)cc1 |
| 31.6 nM | COc1ccc(N2C[C@@H](C)N[C@@H](C)C2)cc1NS(=O)(=O)c1ccc(-c2cccc(F)c2F)cc1 |
| 7.94 nM | COc1ccc(N2C[C@@H](C)N[C@@H](C)C2)cc1NS(=O)(=O)c1ccc(-c2cccc(C)n2)cc1F |
| 79.4 nM | COc1ccc(N2C[C@@H](C)N[C@@H](C)C2)cc1NS(=O)(=O)c1ccc(-c2cccc(C)n2)c(F)c1 |
| 2 nM | COc1ccc(N2C[C@@H](C)N[C@@H](C)C2)cc1NS(=O)(=O)c1ccc(-c2ccco2)cc1C |
| 20 nM | Cc1cc(-c2cccs2)ccc1S(=O)(=O)Nc1cc(N2C[C@@H](C)N[C@@H](C)C2)ccc1F |
| 31.6 nM | Cc1cc(-c2ccoc2)ccc1S(=O)(=O)Nc1cc(N2C[C@@H](C)N[C@@H](C)C2)ccc1F |
| 20 nM | C[C@@H]1CN(c2ccc(F)c(NS(=O)(=O)c3ccc(-c4ccoc4)cc3Cl)c2)C[C@H](C)N1 |
| 6.31 nM | COc1ccc(N2C[C@@H](C)N[C@@H](C)C2)cc1NS(=O)(=O)c1ccc(-c2cccc(C)n2)cc1C |
| 63.1 nM | COc1ccc(N2C[C@@H](C)N[C@@H](C)C2)cc1NS(=O)(=O)c1cc(C)c(-c2ccccc2F)s1 |
| 12.6 nM | COc1ccc(N2C[C@@H](C)N[C@@H](C)C2)cc1NS(=O)(=O)c1cc(C)c(-c2cccc(C)n2)s1 |
| 7.94 nM | COc1ccc(N2C[C@@H](C)N[C@@H](C)C2)cc1NS(=O)(=O)c1ccc(-c2ccsc2)c(C)c1 |
| 5.01 nM | COc1ccc(N2C[C@@H](C)N[C@@H](C)C2)cc1NS(=O)(=O)c1ccc(-c2ccsc2)cc1C |
| 12.6 nM | COc1ccc(N2C[C@@H](C)N[C@@H](C)C2)cc1NS(=O)(=O)c1ccc(-c2nccs2)cc1 |

| EC50 | SMILES |
| --- | --- |
| 3.98 nM | COc1ccc(N2C[C@@H](C)N[C@@H](C)C2)cc1NS(=O)(=O)c1ccc(-c2ccc(C)s2)cc1F |
| 3.16 nM | COc1ccc(N2C[C@@H](C)N[C@@H](C)C2)cc1NS(=O)(=O)c1ccc(-c2ccsc2)cc1Cl |
| 39.8 nM | COc1ccc(N2C[C@@H](C)N[C@@H](C)C2)cc1NS(=O)(=O)c1cccc(-c2ccoc2)c1 |
| 50.1 nM | COc1ccc(N2C[C@@H](C)N[C@@H](C)C2)cc1NS(=O)(=O)c1cccc(-c2cc(C)cs2)c1 |
| 20 nM | COc1ccc(N2C[C@@H](C)N[C@@H](C)C2)cc1NS(=O)(=O)c1ccc(-c2cccn2C)cc1 |
| 6.31 nM | COc1ccc(N2C[C@@H](C)N[C@@H](C)C2)cc1NS(=O)(=O)c1ccc(-c2ccc(C)s2)c(C)c1 |
| 0.316 nM | COc1ccc(N2C[C@@H](C)N[C@@H](C)C2)cc1NS(=O)(=O)c1ccc(-c2ccc(C)o2)cc1Cl |
| 20 nM | COc1cc(-c2ccco2)ccc1S(=O)(=O)Nc1cccc(N2C[C@@H](C)N[C@@H](C)C2)c1 |
| 0.501 nM | COc1ccc(N2C[C@@H](C)N[C@@H](C)C2)cc1NS(=O)(=O)c1ccc(-c2ccco2)cc1Cl |
| 3.98 nM | COc1ccc(N2C[C@@H](C)N[C@@H](C)C2)cc1NS(=O)(=O)c1ccc(-c2ccc(C)s2)c(F)c1 |
| 1.58 nM | C[C@@H]1CN(c2ccc(Cl)c(NS(=O)(=O)c3ccc(-c4ccco4)cc3)c2)C[C@H](C)N1 |
| 15.8 nM | COc1ccc(N2C[C@@H](C)N[C@@H](C)C2)cc1NS(=O)(=O)c1cc(F)c(-c2ccco2)cc1F |
| 7.94 nM | COc1ccc(N2C[C@@H](C)N[C@@H](C)C2)cc1NS(=O)(=O)c1ccc(-c2ccc(C)o2)nc1 |
| 10 nM | COc1ccc(N2C[C@@H](C)N[C@@H](C)C2)cc1NS(=O)(=O)c1ccc(-c2cc(C)cs2)nc1 |
| 2 nM | COc1ccc(N2C[C@@H](C)N[C@@H](C)C2)cc1NS(=O)(=O)c1ccc(-c2csc(C)c2)c(F)c1 |
| 2.51 nM | COc1ccc(N2C[C@@H](C)N[C@@H](C)C2)cc1NS(=O)(=O)c1ccc(-c2csc(C)c2)cc1F |
| 3.98 nM | COc1ccc(N2C[C@@H](C)N[C@@H](C)C2)cc1NS(=O)(=O)c1ccc(-c2csc(C)c2)cc1 |
| 12.6 nM | COc1ccc(N2C[C@@H](C)N[C@@H](C)C2)cc1NS(=O)(=O)c1ccc(-c2ncccn2)cc1 |
| 50.1 nM | COc1ccc(N2C[C@@H](C)N[C@@H](C)C2)cc1NS(=O)(=O)c1ccc(Cl)c2ccccc12 |
| 3.16 nM | COc1ccc(N2C[C@@H](C)N[C@@H](C)C2)cc1NS(=O)(=O)c1ccc(-c2ccc(C)o2)cn1 |
| 15.8 nM | C[C@@H]1CN(c2ccc(O)c(NS(=O)(=O)c3ccc(-c4ccco4)cc3)c2)C[C@H](C)N1 |
